According to PubChem BioAssay AID328 (DTP/NCI, 2004):
Where “and” joins values, the source holds several entries; their conditions need not be identical. Equal entries are not always repeated. Inconclusive results and toxic doses are left out.

Tested on: BDF1 mice, P388 leukemia ip, median survival T/C
Assay: NCI In Vivo Anticancer Drug Screen. Data for tumor model P388 Leukemia (intraperitoneal) in B6D2F1 (BDF1) mice
Settings: endpoint: median survival time, higher = longer survival
Summary of the method: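 T/C = treated-group survival ÷ vehicle-control survival; tumour transplanted into mice before dosing.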

[1] = dose: 12.5 mg/kg/injection, schedule: Q04DX003 (ip), vehicle: saline
[2] = dose: 25.0 mg/kg/injection, schedule: Q01DX009 (ip), vehicle: saline
[3] = dose: 25.0 mg/kg/injection, schedule: Q04DX003 (ip), vehicle: saline
[4] = dose: 50.0 mg/kg/injection, schedule: Q01DX009 (ip), vehicle: saline
[5] = dose: 50.0 mg/kg/injection, schedule: Q04DX003 (ip), vehicle: saline
[6] = dose: 50.0 mg/kg/injection, schedule: Q01DX009 (ip), vehicle: saline with Tween-80
[7] = dose: 100.0 mg/kg/injection, schedule: Q01DX009 (ip), vehicle: saline with Tween-80
[8] = dose: 100.0 mg/kg/injection, schedule: Q04DX003 (ip), vehicle: saline with Tween-80
[9] = dose: 200.0 mg/kg/injection, schedule: Q01DX009 (ip), vehicle: saline with Tween-80
[10] = dose: 400.0 mg/kg/injection, schedule: Q04DX003 (ip), vehicle: saline with Tween-80
[11] = dose: 25.0 mg/kg/injection, schedule: Q01DX009 (ip), vehicle: saline with Tween-80
[12] = dose: 12.5 mg/kg/injection, schedule: Q01DX009 (ip), vehicle: saline with Tween-80
[13] = dose: 50.0 mg/kg/injection, schedule: Q01DX005 (ip), vehicle: saline with Tween-80
[14] = dose: 25.0 mg/kg/injection, schedule: Q01DX009 (ip), vehicle: Klucel (hydroxypropylcellulose) (HPC)
[15] = dose: 50.0 mg/kg/injection, schedule: Q01DX009 (ip), vehicle: Klucel (hydroxypropylcellulose) (HPC)
[16] = dose: 100.0 mg/kg/injection, schedule: Q01DX009 (ip), vehicle: Klucel (hydroxypropylcellulose) (HPC)
[17] = dose: 100.0 mg/kg/injection, schedule: Q01DX009 (ip), vehicle: other
[18] = dose: 200.0 mg/kg/injection, schedule: Q01DX009 (ip), vehicle: other
[19] = dose: 400.0 mg/kg/injection, schedule: Q01DX009 (ip), vehicle: other
[20] = dose: 100.0 mg/kg/injection, schedule: Q01DX001 (ip), vehicle: saline with Tween-80
[21] = dose: 25.0 mg/kg/injection, schedule: Q04DX003 (ip), vehicle: Klucel (hydroxypropylcellulose) (HPC)
[22] = dose: 50.0 mg/kg/injection, schedule: Q04DX003 (ip), vehicle: Klucel (hydroxypropylcellulose) (HPC)
[23] = dose: 100.0 mg/kg/injection, schedule: Q04DX003 (ip), vehicle: Klucel (hydroxypropylcellulose) (HPC)
[24] = dose: 200.0 mg/kg/injection, schedule: Q04DX003 (ip), vehicle: Klucel (hydroxypropylcellulose) (HPC)
[25] = dose: 400.0 mg/kg/injection, schedule: Q04DX003 (ip), vehicle: Klucel (hydroxypropylcellulose) (HPC)
[26] = dose: 200.0 mg/kg/injection, schedule: Q01DX009 (ip), vehicle: Klucel (hydroxypropylcellulose) (HPC)
[27] = dose: 400.0 mg/kg/injection, schedule: Q01DX009 (ip), vehicle: Klucel (hydroxypropylcellulose) (HPC)
[28] = dose: 3.12 mg/kg/injection, schedule: Q01DX009 (ip), vehicle: Klucel (hydroxypropylcellulose) (HPC)
[29] = dose: 6.25 mg/kg/injection, schedule: Q01DX009 (ip), vehicle: Klucel (hydroxypropylcellulose) (HPC)
[30] = dose: 12.5 mg/kg/injection, schedule: Q01DX009 (ip), vehicle: Klucel (hydroxypropylcellulose) (HPC)

In the case of `CC[N+](CC)(CC)CC`, the T/C (dose: 3.13 mg/kg/injection, schedule: Q01DX009 (ip), vehicle: saline with Tween-80) is reported as 110 % of control, the T/C (dose: 6.0 mg/kg/injection, schedule: Q01DX009 (ip), vehicle: saline with Tween-80) is reported as 183 % of control and the T/C (dose: 9.0 mg/kg/injection, schedule: Q01DX009 (ip), vehicle: saline with Tween-80) is reported as 94 % of control. The T/C (dose: 12.5 mg/kg/injection, schedule: Q01DX009 (ip), vehicle: saline) was 107 % of control, the T/C [1] was 95 % of control and the T/C [2] was 107 % of control. The T/C [3] was 91 % of control, the T/C [4] was 92 % of control and the T/C [5] was 100 % of control.

For `O=C1N=C(C(F)(F)F)N=C1c1[nH]c(C(F)(F)F)nc1O`, the T/C [6] was 111 % of control, the T/C [7] was 102 % of control and the T/C [8] was 100 % of control. For the same compound, the T/C [9] was 102 % of control, the T/C (dose: 200.0 mg/kg/injection, schedule: Q04DX003 (ip), vehicle: saline with Tween-80) was 102 % of control and the T/C (dose: 400.0 mg/kg/injection, schedule: Q01DX009 (ip), vehicle: saline with Tween-80) was 116 % of control. For the same compound, the T/C [10] was 98 % of control.

`Nc1ccccc1N` was tested, and the T/C [11] was 92 % of control and 100 % of control, the T/C [6] was 100 % of control and the T/C [9] was 97 % of control.

For `COc1ccc(C(Cn2ccnc2)Sc2ccc(Cl)c(Cl)c2)cc1` (stereo not drawn), the T/C [12] was 105 % of control, the T/C [11] was 110 % of control and the T/C [6] was 120 % of control. For the same compound, the T/C [7] was 93 % of control and 119 % of control.

In the case of `C=C1C(=O)CCC1/C=C\C` (stereo not drawn), the T/C [13] is reported as 97 % of control.

For `O=C(NS(=O)(=O)c1ccc(Cl)cc1)c1cccc2ccccc12`, the T/C [14] was 95 % of control, the T/C [15] was 90 % of control and the T/C [16] was 109 % of control.

In the case of `CCCCCCCCOP(=O)(N1CC1)N1CC1`, the T/C [1] is reported as 170 % of control, the T/C (dose: 14.0 mg/kg/injection, schedule: Q04DX003 (ip), vehicle: saline) is reported as 150 % of control and the T/C (dose: 21.0 mg/kg/injection, schedule: Q04DX003 (ip), vehicle: saline) is reported as 154 % of control. For the same compound, the T/C [2] was 183 % of control, the T/C [3] was 160 % of control and the T/C (dose: 33.0 mg/kg/injection, schedule: Q01DX009 (ip), vehicle: saline) was 211 % of control. For the same compound, the T/C (dose: 33.0 mg/kg/injection, schedule: Q04DX003 (ip), vehicle: saline) was 180 % of control and 222 % of control, the T/C [4] was 230 % of control and 250 % of control and the T/C [5] was 242 % of control and 285 % of control. The T/C (dose: 75.0 mg/kg/injection, schedule: Q01DX009 (ip), vehicle: saline) was 111 % of control and the T/C (dose: 75.0 mg/kg/injection, schedule: Q04DX003 (ip), vehicle: saline) was 285 % of control.

For `OC1CSC1`, the T/C (dose: 50.0 mg/kg/injection, schedule: Q01DX009 (ip), vehicle: saline + alcohol) was 105 % of control, the T/C (dose: 100.0 mg/kg/injection, schedule: Q01DX009 (ip), vehicle: saline + alcohol) was 100 % of control and the T/C (dose: 200.0 mg/kg/injection, schedule: Q01DX009 (ip), vehicle: saline + alcohol) was 91 % of control. For the same compound, the T/C (dose: 400.0 mg/kg/injection, schedule: Q01DX009 (ip), vehicle: saline + alcohol) was 98 % of control.

For `O=Cc1nc2ccccc2[nH]1`, the T/C [12] was 108 % of control, the T/C [11] was 101 % of control and the T/C [6] was 103 % of control. For the same compound, the T/C [7] was 111 % of control.

In the case of `COc1cccc(C(=O)CC(O)(C(F)(F)F)C(F)(F)F)c1`, the T/C [17] is reported as 91 % of control, the T/C (dose: 100.0 mg/kg/injection, schedule: Q04DX003 (ip), vehicle: other) is reported as 100 % of control and the T/C [18] is reported as 95 % of control. For the same compound, the T/C (dose: 200.0 mg/kg/injection, schedule: Q04DX003 (ip), vehicle: other) was 100 % of control, the T/C [19] was 104 % of control and the T/C (dose: 400.0 mg/kg/injection, schedule: Q04DX003 (ip), vehicle: other) was 100 % of control.

For `O=C1C(C2CCCCC2)CCCC1C1CCCCC1` (stereo not drawn), the T/C [20] was 107 % of control and the T/C (dose: 200.0 mg/kg/injection, schedule: Q01DX001 (ip), vehicle: saline with Tween-80) was 98 % of control.

`Nc1nc(C=O)c(-c2cccc3ccccc23)c(=O)[nH]1` was tested, and the T/C [8] was 113 % of control and the T/C [10] was 150 % of control.

For `CCCCCCOP(=O)(CCCCCC)OCCCCCC`, the T/C [14] was 108 % of control, the T/C [21] was 100 % of control and the T/C [15] was 104 % of control. For the same compound, the T/C [22] was 95 % of control, the T/C [16] was 113 % of control and the T/C [23] was 100 % of control.

For `NOCc1cc2c(cc1Cl)OCO2`, the T/C [23] was 95 % of control, the T/C [24] was 100 % of control and the T/C [25] was 113 % of control.

`ClCCN(CCCl)CCOc1ccc(-c2nc3ccccc3[nH]2)cc1` was tested, and the T/C (dose: 12.5 mg/kg/injection, schedule: Q04DX002 (ip), vehicle: saline) was 189 % of control.

With `COc1ccc(OC)c(NC(=O)Nc2c(C)n(C)n(-c3ccccc3)c2=O)c1` the T/C [16] was 105 % of control, the T/C [26] was 90 % of control and the T/C [27] was 105 % of control.

With `CN(C)c1ccc(P(c2ccc(N(C)C)cc2)c2ccc(N(C)C)cc2)cc1` the T/C [28] was 96 % of control, the T/C [29] was 88 % of control and the T/C [30] was 88 % of control. For the same compound, the T/C (dose: 12.5 mg/kg/injection, schedule: Q04DX003 (ip), vehicle: Klucel (hydroxypropylcellulose) (HPC)) was 91 % of control, the T/C [21] was 113 % of control and the T/C [22] was 86 % of control.

For `Cc1ccc(N=Cc2ccccc2)cc1`, the T/C [16] was 95 % of control, the T/C [23] was 100 % of control and the T/C [26] was 100 % of control. For the same compound, the T/C [24] was 108 % of control, the T/C [27] was 90 % of control and the T/C [25] was 108 % of control.

With `CCN(CC)P(Cl)(C1=C(Cl)C(=O)C(C#N)=C(C#N)C1=O)(N(CC)CC)N(CC)CC` the T/C (dose: 25.0 mg/kg/injection, schedule: Q01DX001 (ip), vehicle: saline with Tween-80) was 97 % of control, the T/C (dose: 50.0 mg/kg/injection, schedule: Q01DX001 (ip), vehicle: saline with Tween-80) was 95 % of control and the T/C [20] was 95 % of control.

For `Cc1ccc(C(=O)CC(O)(C(F)(F)F)C(F)(F)F)cc1`, the T/C [17] was 100 % of control, the T/C [18] was 95 % of control and the T/C [19] was 121 % of control.

`CC(C)=CCC/C(C)=C/CNCCc1c[nH]c2ccccc12` was tested, and the T/C [28] was 117 % of control, the T/C [29] was 104 % of control and 117 % of control and the T/C [30] was 117 % of control. For the same compound, the T/C [14] was 120 % of control and the T/C [15] was 120 % of control.

`O=[N+]([O-])c1cc([N+](=O)[O-])c(Cl)cc1Cl` was tested, and the T/C (dose: 3.13 mg/kg/injection, schedule: Q01DX009 (ip), vehicle: Klucel (hydroxypropylcellulose) (HPC)) was 104 % of control, the T/C [29] was 104 % of control and the T/C [30] was 109 % of control. For the same compound, the T/C [22] was 103 % of control and the T/C [24] was 92 % of control.

`C/C(CCC(=O)O)=N/O` was tested, and the T/C (dose: 100.0 mg/kg/injection, schedule: Q01DX009 (ip), vehicle: saline) was 110 % of control, the T/C (dose: 100.0 mg/kg/injection, schedule: Q04DX003 (ip), vehicle: saline) was 104 % of control and the T/C (dose: 200.0 mg/kg/injection, schedule: Q01DX009 (ip), vehicle: saline) was 120 % of control. The T/C (dose: 200.0 mg/kg/injection, schedule: Q04DX003 (ip), vehicle: saline) was 108 % of control and the T/C (dose: 400.0 mg/kg/injection, schedule: Q04DX003 (ip), vehicle: saline) was 116 % of control.

In the case of `CC1(C)CC1(Br)Br`, the T/C [12] is reported as 100 % of control, the T/C [11] is reported as 106 % of control and the T/C [7] is reported as 98 % of control and 100 % of control.

With `COC(=O)c1cc(=O)nc(N/N=C/c2ccc(OC)cc2)s1` the T/C [13] was 102 % of control, the T/C (dose: 100.0 mg/kg/injection, schedule: Q01DX005 (ip), vehicle: saline with Tween-80) was 102 % of control and the T/C (dose: 200.0 mg/kg/injection, schedule: Q01DX005 (ip), vehicle: saline with Tween-80) was 102 % of control.
